These results are taken from US20260008775A1, “AZOLE MODULATORS OF CHOLESTEROL BIOSYNTHESIS AND THEIR USE FOR PROMOTING REMYELINATION” (GENENTECH, INC., priority 2022, published 2026).

Assay [1] deals with human emopamil binding protein and human 7-dehydrocholesterol reductase (hEBP-DHCR7) (Homo sapiens (Human), UniProt Q15125). The assay can be described thus: hEBP-DHCR7 radioligand binding assay (filter binding, membranes of co-expressing HEK293 cells). The note with it: for Ki: competition with [3H] radioligand, 8 doses 0.06 to 5000 nM, Ki calculated from IC50. A digest of the protocol:
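Compound, either single dose 1 μM or eight 5-fold dilutions from 0.06 to 5000 nM, competed with a [3H]-labelled ligand added at 25 nM for binding to co-expressing HEK293 membranes. IC50 came from nonlinear regression, with full block and DMSO as controls, then Cheng–Prusoff conversion to Ki.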

Assay [2] has as its system zymostenol accumulation (EBP) in EpiSC-derived OPCs. Nature of the assay: GC/MS-based sterol profiling, zymostenol accumulation in EpiSC-derived OPCs. The format is cell-based, mouse. To be noted: for EC50: Mus musculus, 24 h, EpiSC-derived OPCs, 24 hr, 8 doses from 0.15 nM to 333 nM, read-out: Mouse Zymostenol GCMS EC50. Summed up:
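Zymostenol level is expressed relative to that after 24 h with 100 nM positive-control reference, measured by full-scan GC/MS (m/z 458) with cholesterol-d7 internal standard after BSTFA derivatisation. Cells were EpiSC-derived OPCs, 100,000/well in N2B27 without growth factors, treated 24 h, from two or more independent platings.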

The test system of a further assay is EpiSC-derived OPCs. The assay can be described thus: In vitro phenotypic screening of OPCs, MBP high-content imaging (percentage of oligodendrocytes). The format is cell-based, mouse. To be noted: for EC50: Mus musculus, 72 h, 3 days, MBP stain, dose-response 0.5 nM to 1000 nM, read-out: OPC EC50. A digest of the protocol: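 EC50 was fitted by Hill equation to the MBP-positive oligodendrocyte percentage from imaging of fixed, MBP- and DAPI-stained cells. Treatment lasted 3 days at 37 °C, final doses 0.5–1000 nM over 8 points, in growth factor-free N2B27. Cells were EpiSC-derived OPCs, tested in at least two independent platings.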

human emopamil binding protein and human 7-dehydrocholesterol reductase (hEBP-DHCR7), sequence (Q15125 whole entry): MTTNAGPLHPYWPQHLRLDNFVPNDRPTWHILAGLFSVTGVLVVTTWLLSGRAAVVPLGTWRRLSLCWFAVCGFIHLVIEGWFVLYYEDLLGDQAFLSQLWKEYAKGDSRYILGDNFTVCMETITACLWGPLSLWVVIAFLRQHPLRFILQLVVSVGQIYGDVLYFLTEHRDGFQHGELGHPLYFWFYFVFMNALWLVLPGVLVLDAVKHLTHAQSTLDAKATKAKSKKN

As for `CC(C)n1nc(-c2ccc(C(F)(F)F)cc2)cc1[C@H]1[C@@H]2C[C@H](N3CCCOCC3)C[C@@H]21` [Compound 181*, 4-((1R,3r,5S,6r)-6-(1-Isopropyl-3-(4-(trifluoromethyl)phenyl)-1H-pyrazol-5-yl)bicyclo[3.1.0]hexan-3-yl)-1,4-oxazepane], the Ki (usually a dissociation constant, usually derived from enzyme kinetics or from competition with a known ligand) in assay [1] is 10.1 nM. The EC50 (commonly the concentration that produces a half-maximal response) is 7 nM in assay [2] and 12.4 nM in the assay on EpiSC-derived OPCs.
For the compound `CC(C)n1nc(-c2ccc(C(F)(F)F)cc2)cc1[C@H]1[C@@H]2C[C@@H](N3CCCOCC3)C[C@@H]21` [Compound 182*, 4-((1R,3s,5S,6r)-6-(1-isopropyl-3-(4-(trifluoromethyl)phenyl)-1H-pyrazol-5-yl)bicyclo[3.1.0]hexan-3-yl)-1,4-oxazepane], in assay [1], the Ki was 15.8 nM. In addition, the EC50 in assay [2] came out at 18.5 nM; in the assay on EpiSC-derived OPCs it was 36.9 nM.
Turning to `CC(C)n1nc(-c2ccc(F)cc2)cc1[C@H]1[C@@H]2C[C@H](N3CCCOCC3)C[C@@H]21` [Compound 183*, 4-((1R,3r,5S,6r)-6-(3-(4-Fluorophenyl)-1-isopropyl-1H-pyrazol-5-yl)bicyclo[3.1.0]hexan-3-yl)-1,4-oxazepane], the Ki in assay [1] was 10.6 nM. Also, the EC50 was 8.6 nM in assay [2] and 13.1 nM with EpiSC-derived OPCs.
As for `CC(C)n1nc(-c2ccc(F)cc2)cc1[C@H]1[C@@H]2C[C@@H](N3CCCOCC3)C[C@@H]21` [Compound 184*, 4-((1R,3s,5S,6r)-6-(3-(4-fluorophenyl)-1-isopropyl-1H-pyrazol-5-yl)bicyclo[3.1.0]hexan-3-yl)-1,4-oxazepane], the Ki in assay [1] is 21.3 nM. Moreover, the 50% effective concentration (EC50) in assay [2] came to 27.1 nM; with EpiSC-derived OPCs, 55.9 nM.
The corresponding values for `CC(C)n1nc(-c2ccc(OC(F)(F)F)cc2)cc1[C@H]1[C@@H]2C[C@H](N3CCCOCC3)C[C@@H]21` [Compound 185*, 4-((1R,3r,5S,6r)-6-(1-Isopropyl-3-(4-(trifluoromethoxy)phenyl)-1H-pyrazol-5-yl)bicyclo[3.1.0]hexan-3-yl)-1,4-oxazepane] are 12 nM, 7.66 nM and 11.3 nM.
The corresponding values for `CC(C)n1nc(-c2ccc(OC(F)(F)F)cc2)cc1[C@H]1[C@@H]2C[C@@H](N3CCCOCC3)C[C@@H]21` [Compound 186*, 4-((1R,3s,5S,6r)-6-(1-isopropyl-3-(4-(trifluoromethoxy)phenyl)-1H-pyrazol-5-yl)bicyclo[3.1.0]hexan-3-yl)-1,4-oxazepane] are 20.6 nM, 56.7 nM and 431 nM.
The matching figures for `CC(C)n1nc(-c2cncc(F)c2)cc1[C@H]1[C@@H]2C[C@H](N3CCCOCC3)C[C@@H]21` [Compound 187*, 4-((1R,3r,5S,6r)-6-(3-(5-Fluoropyridin-3-yl)-1-isopropyl-1H-pyrazol-5-yl)bicyclo[3.1.0]hexan-3-yl)-1,4-oxazepane]: 20.3 nM, 7.75 nM and 37.3 nM.
Take `CC(C)n1nc(-c2cncc(F)c2)cc1[C@H]1[C@@H]2C[C@@H](N3CCCOCC3)C[C@@H]21` [Compound 188*, 4-((1R,3s,5S,6r)-6-(3-(5-fluoropyridin-3-yl)-1-isopropyl-1H-pyrazol-5-yl)bicyclo[3.1.0]hexan-3-yl)-1,4-oxazepane]: the Ki in assay [1] was 169 nM. The EC50 in assay [2] was found to be 122 nM; with EpiSC-derived OPCs, 549 nM.
With `CC(C)n1nc(-c2cccc(OC(F)(F)F)c2)cc1[C@H]1[C@@H]2C[C@H](N3CCCOCC3)C[C@@H]21` [Compound 189*, 4-((1R,3r,5S,6r)-6-(1-isopropyl-3-(3-(trifluoromethoxy)phenyl)-1H-pyrazol-5-yl)bicyclo[3.1.0]hexan-3-yl)-1,4-oxazepane], the inhibition constant Ki in assay [1] was 9.14 nM. In addition, the EC50 worked out at 3.43 nM in assay [2] and 3.32 nM with EpiSC-derived OPCs.
`CC(C)n1nc(-c2cccc(OC(F)(F)F)c2)cc1[C@H]1[C@@H]2C[C@@H](N3CCCOCC3)C[C@@H]21` [Compound 190*, 4-((1R,3s,5S,6r)-6-(1-isopropyl-3-(3-(trifluoromethoxy)phenyl)-1H-pyrazol-5-yl)bicyclo[3.1.0]hexan-3-yl)-1,4-oxazepane]: in assay [1], the Ki was 9.63 nM. Besides, the EC50 was 10.9 nM in assay [2] and 25.1 nM in the assay with EpiSC-derived OPCs.
The matching figures for `CC(C)n1nc(-c2cccc(C#N)c2)cc1[C@H]1[C@@H]2C[C@H](N3CCCOCC3)C[C@@H]21` [Compound 191*, 3-(5-((1R,3r,5S,6r)-3-(1,4-Oxazepan-4-yl)bicyclo[3.1.0]hexan-6-yl)-1-isopropyl-1H-pyrazol-3-yl)benzonitrile]: 8.04 nM, 2.66 nM and 8.52 nM.
The matching figures for `CC(C)n1nc(-c2cccc(C#N)c2)cc1[C@H]1[C@@H]2C[C@@H](N3CCCOCC3)C[C@@H]21` [Compound 192*, 3-(5-((1R,3s,5S,6r)-3-(1,4-oxazepan-4-yl)bicyclo[3.1.0]hexan-6-yl)-1-isopropyl-1H-pyrazol-3-yl)benzonitrile]: 12.6 nM, 22.7 nM and 61.6 nM.
The corresponding values for `CC(C)n1nc(-c2ccccc2F)cc1[C@H]1[C@@H]2C[C@H](N3CCCOCC3)C[C@@H]21` [Compound 193*, 4-((1R,3r,5S,6r)-6-(3-(2-Fluorophenyl)-1-isopropyl-1H-pyrazol-5-yl)bicyclo[3.1.0]hexan-3-yl)-1,4-oxazepane] are 7.29 nM, 5.41 nM and 7.12 nM.
Take `CC(C)n1nc(-c2ccccc2F)cc1[C@H]1[C@@H]2C[C@@H](N3CCCOCC3)C[C@@H]21` [Compound 194*, 4-((1R,3s,5S,6r)-6-(3-(2-fluorophenyl)-1-isopropyl-1H-pyrazol-5-yl)bicyclo[3.1.0]hexan-3-yl)-1,4-oxazepane]: in assay [1], the Ki is 13.1 nM. In addition, the EC50 in assay [2] is 42.3 nM; with EpiSC-derived OPCs, 131 nM.
The matching figures for `CC(C)n1nc(-c2cccc(F)c2)cc1[C@H]1[C@@H]2C[C@H](N3CCCOCC3)C[C@@H]21` [Compound 195*, 4-((1R,3r,5S,6r)-6-(3-(3-Fluorophenyl)-1-isopropyl-1H-pyrazol-5-yl)bicyclo[3.1.0]hexan-3-yl)-1,4-oxazepane]: 12.7 nM, 2.42 nM and 7.49 nM.
For the compound `CC(C)n1nc(-c2cccc(F)c2)cc1[C@H]1[C@@H]2C[C@@H](N3CCCOCC3)C[C@@H]21` [Compound 196*, 4-((1R,3s,5S,6r)-6-(3-(3-fluorophenyl)-1-isopropyl-1H-pyrazol-5-yl)bicyclo[3.1.0]hexan-3-yl)-1,4-oxazepane], the Ki in assay [1] is 12.7 nM. In addition, the EC50 in assay [2] came to 13.3 nM; in the assay on EpiSC-derived OPCs, 46.2 nM.
As for `CC(C)n1nc(-c2cnc(C(F)(F)F)nc2)cc1[C@H]1[C@@H]2C[C@H](N3CCOCC3)C[C@@H]21` [Compound 203, 4-((1R,3r,5S,6r)-6-(1-isopropyl-3-(2-(trifluoromethyl)pyrimidin-5-yl)-1H-pyrazol-5-yl)bicyclo[3.1.0]hexan-3-yl)morpholine], in assay [1], the Ki was 27.5 nM. The EC50 in assay [2] was 21.4 nM; in the assay with EpiSC-derived OPCs, 97.3 nM.
Take `CC(C)n1nc(-c2cnc(C(F)(F)F)nc2)nc1[C@H]1[C@@H]2C[C@H](N3CCOC[C@H]3C)C[C@@H]21` [Compound 204, (R)-4-((1R,3r,5S,6r)-6-(1-isopropyl-3-(2-(trifluoromethyl)pyrimidin-5-yl)-1H-1,2,4-triazol-5-yl)bicyclo[3.1.0]hexan-3-yl)-3-methylmorpholine]: the Ki in assay [1] is 16 nM. Besides, the EC50 in assay [2] was determined as 2.07 nM; with EpiSC-derived OPCs it was 6 nM.
Turning to `CC(C)n1nc(-c2cnc(N)c(C(F)(F)F)c2)cc1[C@H]1[C@@H]2C[C@@H](N3CCOCC3)C[C@@H]21` [Compound A, reference compound], in assay [1] (as compared to compound 202 (no amine group on Ring B)), the “fold decrease in EBP inhibition” value turned out to be 19.5 fold. Besides, the Ki in assay [1] is 3670 nM. For the same compound, the EC50 amounted to 1400 nM in assay [2] and 3000 nM in the assay on EpiSC-derived OPCs. Also, the “fold decrease in activity in the mouse zymostenol assay” value in assay [2] (as compared to compound 202) came out at 5.9 fold. Besides, the “fold decrease in activity in the OPC assay” value in the assay on EpiSC-derived OPCs (as compared to compound 202) was found to be 4.1 fold.
